Source: patent US12495798B2, “Nicotinamide compound and herbicidal composition comprising compound” (KOREA RESEARCH INSTITUTE OF CHEMICAL TECHNOLOGY, priority 2019, dated 2025)

Columns and labels:
Assay type in all cases: in vivo
cocklebur [1] = assay: Herbicidal activity test against upland field weeds (soil treatment test); design: key to Soil treatment herbicidal activity, Cocklebur: 0 (no control); 100 (complete control); conditions: 50 g ai/ha, scale 0 (no control) to 100 (complete control)
Method in brief: (§1)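 Weed control scored visually on a 0 (none) to 100 (complete) scale versus untreated pots at 14 or 21 days in greenhouse (30±5 °C, 14 h light). Test compounds, 50 or 75 g a.i./ha in 50% acetone/0.1% Tween-20, hand-sprayed onto soil one day post-sowing.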

barnyard grass [2] = assay: as above; conditions: Echinochloa crus-galli, 50 g ai/ha, scale 0 (no control) to 100 (complete control)
Method in brief: as §1

barnyard grass [3] = assay: Herbicidal activity test against upland field weeds (foliar treatment test); design: key to Foliar treatment herbicidal activity, barnyard grass: 0 (no control); 100 (complete control); conditions: 50 g ai/ha, scale 0-100; for pest or weed control at 50 g/ha: Echinochloa crus-galli
Method in brief: (§2)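 Visual 0–100 control ratings relative to untreated plants, taken 14 (or 21) days after spraying foliage at 50 or 75 g a.i./ha. Spray solution: 50% acetone with 0.1% Tween-20; plants kept in greenhouse at 30±5 °C, 14 h light/10 h dark.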

cocklebur [4] = assay: as above; design: key to Foliar treatment herbicidal activity, Cocklebur: 0 (no control); 100 (complete control); conditions: 50 g ai/ha, scale 0-100; for pest or weed control at 50 g/ha: Xanthium strumarium
Method in brief: as §2

indian jointvetch = assay: Herbicidal activity test against upland field weeds (soil treatment test); design: key to Soil treatment herbicidal activity, Indian jointvetch: 0 (no control); 100 (complete control); conditions: 50 g ai/ha, scale 0 (no control) to 100 (complete control)
Method in brief: as §1

fall panicum = assay: Herbicidal activity test against upland field weeds (foliar treatment test); conditions: Panicum dichotomiflorum, 50 g ai/ha, scale 0-100
Method in brief: as §2

bindweed = assay: Herbicidal activity test against upland field weeds (soil treatment test); design: key to Soil treatment herbicidal activity, Bindweed: 0 (no control); 100 (complete control); conditions: 50 g ai/ha, scale 0 (no control) to 100 (complete control)
Method in brief: as §1

quack grass = assay: Herbicidal activity test against upland field weeds (foliar treatment test); design: key to Foliar treatment herbicidal activity, quack grass: 0 (no control); 100 (complete control); conditions: 50 g ai/ha, scale 0-100
Method in brief: as §2

crabgrass = assay: Herbicidal activity test against upland field weeds (soil treatment test); design: key to Soil treatment herbicidal activity, Crabgrass: 0 (no control); 100 (complete control); conditions: 50 g ai/ha, scale 0 (no control) to 100 (complete control); for pest or weed control at 50 g/ha: Digitaria sanguinalis
Method in brief: as §1

corn = assay: Phytotoxicity test for field crops (soil treatment test); design: key: 0 (no harm); 9 (complete withered)
Method in brief: (§3)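 Crops sown in sterilized horticultural soil (pH 6.1, organic material 1.0%) with mixed fertilizer (N:P:K=17:21:17); one day after sowing, soil sprayed with compound in 33% acetone/0.1% Tween-20 at 19˜300 g a.i./ha. Greenhouse at 30±5° C, 14/10 h light/dark; injury scored visually 0–9 versus untreated control at 10 and 20 days.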

soybean = assay: as above; design: key: 0 (no harm); 9 (complete withered)
Method in brief: as §3

cotton = assay: as above; design: key: 0 (no harm); 9 (complete withered)
Method in brief: as §3

wheat = assay: as above; design: key: 0 (no harm); 9 (complete withered)
Method in brief: as §3

rice = assay: as above; design: key: 0 (no harm); 9 (complete withered)
Method in brief: as §3

[5] = 50 g ai/ha, Corn (10 days after treatment)
[6] = 50 g ai/ha, Corn (20 days after treatment)
[7] = 100 g ai/ha, Corn (10 days after treatment)
[8] = 100 g ai/ha, Corn (20 days after treatment)
[9] = 50 g ai/ha, Soybean (10 days after treatment)
[10] = 50 g ai/ha, Soybean (20 days after treatment)
[11] = 100 g ai/ha, Soybean (10 days after treatment)
[12] = 100 g ai/ha, Soybean (20 days after treatment)
[13] = 50 g ai/ha, Cotton (10 days after treatment)
[14] = 50 g ai/ha, Cotton (20 days after treatment)
[15] = 100 g ai/ha, Cotton (10 days after treatment)
[16] = 100 g ai/ha, Cotton (20 days after treatment)
[17] = 50 g ai/ha, Wheat (10 days after treatment)
[18] = 100 g ai/ha, Wheat (10 days after treatment)
[19] = 100 g ai/ha, Wheat (20 days after treatment)
[20] = 50 g ai/ha, Rice (10 days after treatment)
[21] = 50 g ai/ha, Rice (20 days after treatment)
[22] = 100 g ai/ha, Rice (10 days after treatment)
[23] = 100 g ai/ha, Rice (20 days after treatment)
[24] = 50 g ai/ha, Wheat (20 days after treatment)

Cn1ncnc1COCc1nc(C(F)(F)F)ccc1C(=O)Nc1nnnn1C [Compound No. 1-102, 2-(((1-methyl-1H-1,2,4-triazol-5-yl)methoxy)methyl)-N-(1-methyl-1H-tetrazol-5-yl)-6-(trifluoromethyl)nicotinamide]
Soil treatment herbicidal activity, Cocklebur (cocklebur [1]): 0 | pest or weed control at 50 g/ha (barnyard grass [2]): 20% | pest or weed control at 50 g/ha (barnyard grass [3]): 80% | pest or weed control at 50 g/ha (cocklebur [4]): 80% | pest or weed control at 50 g/ha (indian jointvetch): 20% | pest or weed control at 50 g/ha (fall panicum): 70% | Soil treatment herbicidal activity, Bindweed (bindweed): 0 | Foliar treatment herbicidal activity, quack grass (quack grass): 0 | pest or weed control at 50 g/ha (crabgrass): 20% | Soil treatment phytotoxicity, Corn (corn; [5]): 0 | Soil treatment phytotoxicity, Corn (corn; [6]): 0 | Soil treatment phytotoxicity, Corn (corn; [7]): 0 | Soil treatment phytotoxicity, Corn (corn; [8]): 0 | Soil treatment phytotoxicity, Soybean (soybean; [9]): 0 | Soil treatment phytotoxicity, Soybean (soybean; [10]): 0 | Soil treatment phytotoxicity, Soybean (soybean; [11]): 0 | Soil treatment phytotoxicity, Soybean (soybean; [12]): 0 | Soil treatment phytotoxicity, Cotton (cotton; [13]): 0 | Soil treatment phytotoxicity, Cotton (cotton; [14]): 0 | Soil treatment phytotoxicity, Cotton (cotton; [15]): 1 | Soil treatment phytotoxicity, Cotton (cotton; [16]): 2 | Soil treatment phytotoxicity, Wheat (wheat; [17]): 0 | Soil treatment phytotoxicity, Wheat (wheat; [18]): 0 | Soil treatment phytotoxicity, Wheat (wheat; [19]): 0 | Soil treatment phytotoxicity, Rice (rice; [20]): 5 | Soil treatment phytotoxicity, Rice (rice; [21]): 5 | Soil treatment phytotoxicity, Rice (rice; [22]): 5 | Soil treatment phytotoxicity, Rice (rice; [23]): 6

Cn1ncnc1COc1nc(C(F)(F)F)ccc1C(=O)Nc1nnnn1C [Compound No. 1-45, 2-((1-methyl-1H-1,2,4-triazol-5-yl)methoxy)-N-(1-methyl-1H-tetrazol-5-yl)-6-(trifluoromethyl)nicotinamide]
Soil treatment herbicidal activity, Cocklebur (cocklebur [1]): 0 | pest or weed control at 50 g/ha (barnyard grass [2]): 98% | pest or weed control at 50 g/ha (barnyard grass [3]): 95% | pest or weed control at 50 g/ha (cocklebur [4]): 95% | Soil treatment herbicidal activity, Indian jointvetch (indian jointvetch): 0 | pest or weed control at 50 g/ha (fall panicum): 95% | Soil treatment herbicidal activity, Bindweed (bindweed): 0 | pest or weed control at 50 g/ha (quack grass): 40% | Soil treatment herbicidal activity, Crabgrass (crabgrass): 100 | Soil treatment phytotoxicity, Corn (corn; [5]): 0 | Soil treatment phytotoxicity, Corn (corn; [6]): 0 | Soil treatment phytotoxicity, Corn (corn; [7]): 1 | Soil treatment phytotoxicity, Corn (corn; [8]): 0 | Soil treatment phytotoxicity, Soybean (soybean; [9]): 0 | Soil treatment phytotoxicity, Soybean (soybean; [10]): 0 | Soil treatment phytotoxicity, Soybean (soybean; [11]): 0 | Soil treatment phytotoxicity, Soybean (soybean; [12]): 0 | Soil treatment phytotoxicity, Cotton (cotton; [13]): 1 | Soil treatment phytotoxicity, Cotton (cotton; [14]): 4 | Soil treatment phytotoxicity, Cotton (cotton; [15]): 3 | Soil treatment phytotoxicity, Cotton (cotton; [16]): 5 | Soil treatment phytotoxicity, Wheat (wheat; [17]): 0 | Soil treatment phytotoxicity, Wheat (wheat; [24]): 0 | Soil treatment phytotoxicity, Wheat (wheat; [18]): 0 | Soil treatment phytotoxicity, Wheat (wheat; [19]): 0 | Soil treatment phytotoxicity, Rice (rice; [20]): 9 | Soil treatment phytotoxicity, Rice (rice; [21]): 9 | Soil treatment phytotoxicity, Rice (rice; [22]): 9 | Soil treatment phytotoxicity, Rice (rice; [23]): 9

Cn1nnc(COCc2nc(C(F)(F)F)ccc2C(=O)N(C(=O)c2ccccc2)c2nnnn2C)n1 [Compound No. 2-68, N-benzoyl-N-(1-methyl-1H-tetrazol-5-yl)-2-(((2-methyl-2H-tetrazol-5-yl)methoxy)methyl)-6-(trifluoromethyl)nicotinamide]
Soil treatment herbicidal activity, Cocklebur (cocklebur [1]): 0 | pest or weed control at 50 g/ha (barnyard grass [2]): 98% | Foliar treatment herbicidal activity, barnyard grass (barnyard grass [3]): 100 | Foliar treatment herbicidal activity, Cocklebur (cocklebur [4]): 100 | Soil treatment herbicidal activity, Indian jointvetch (indian jointvetch): 100 | pest or weed control at 50 g/ha (fall panicum): 98% | Soil treatment herbicidal activity, Bindweed (bindweed): 0 | Foliar treatment herbicidal activity, quack grass (quack grass): 0 | Soil treatment herbicidal activity, Crabgrass (crabgrass): 100 | Soil treatment phytotoxicity, Corn (corn; [5]): 0 | Soil treatment phytotoxicity, Corn (corn; [6]): 0 | Soil treatment phytotoxicity, Corn (corn; [7]): 0 | Soil treatment phytotoxicity, Corn (corn; [8]): 0 | Soil treatment phytotoxicity, Soybean (soybean; [9]): 0 | Soil treatment phytotoxicity, Soybean (soybean; [10]): 0 | Soil treatment phytotoxicity, Soybean (soybean; [11]): 0 | Soil treatment phytotoxicity, Soybean (soybean; [12]): 0 | Soil treatment phytotoxicity, Cotton (cotton; [13]): 1 | Soil treatment phytotoxicity, Cotton (cotton; [14]): 5 | Soil treatment phytotoxicity, Cotton (cotton; [15]): 3 | Soil treatment phytotoxicity, Cotton (cotton; [16]): 9 | Soil treatment phytotoxicity, Wheat (wheat; [17]): 0 | Soil treatment phytotoxicity, Wheat (wheat; [24]): 0 | Soil treatment phytotoxicity, Wheat (wheat; [18]): 0 | Soil treatment phytotoxicity, Wheat (wheat; [19]): 0 | Soil treatment phytotoxicity, Rice (rice; [20]): 6 | Soil treatment phytotoxicity, Rice (rice; [21]): 7 | Soil treatment phytotoxicity, Rice (rice; [22]): 8 | Soil treatment phytotoxicity, Rice (rice; [23]): 9

Cn1nnnc1COCc1nc(C(F)(F)F)ccc1C(=O)Nc1nnnn1C [Compound No. 1-61, N-(1-methyl-1H-tetrazol-5-yl)-2-(((1-methyl-1H-tetrazol-5-yl)methoxy)methyl)-6-(trifluoromethyl)nicotinamide]
Soil treatment herbicidal activity, Cocklebur (cocklebur [1]): 0 | pest or weed control at 50 g/ha (barnyard grass [2]): 20% | pest or weed control at 50 g/ha (barnyard grass [3]): 95% | pest or weed control at 50 g/ha (cocklebur [4]): 98% | Soil treatment herbicidal activity, Indian jointvetch (indian jointvetch): 100 | pest or weed control at 50 g/ha (fall panicum): 70% | Soil treatment herbicidal activity, Bindweed (bindweed): 0 | Foliar treatment herbicidal activity, quack grass (quack grass): 0 | pest or weed control at 50 g/ha (crabgrass): 40% | Soil treatment phytotoxicity, Corn (corn; [5]): 0 | Soil treatment phytotoxicity, Corn (corn; [6]): 0 | Soil treatment phytotoxicity, Corn (corn; [7]): 0 | Soil treatment phytotoxicity, Corn (corn; [8]): 0 | Soil treatment phytotoxicity, Soybean (soybean; [9]): 0 | Soil treatment phytotoxicity, Soybean (soybean; [11]): 3 | Soil treatment phytotoxicity, Soybean (soybean; [12]): 6 | Soil treatment phytotoxicity, Cotton (cotton; [13]): 1 | Soil treatment phytotoxicity, Cotton (cotton; [14]): 1 | Soil treatment phytotoxicity, Cotton (cotton; [15]): 2 | Soil treatment phytotoxicity, Cotton (cotton; [16]): 2 | Soil treatment phytotoxicity, Wheat (wheat; [17]): 0 | Soil treatment phytotoxicity, Wheat (wheat; [24]): 0 | Soil treatment phytotoxicity, Wheat (wheat; [18]): 0 | Soil treatment phytotoxicity, Wheat (wheat; [19]): 0 | Soil treatment phytotoxicity, Rice (rice; [20]): 0 | Soil treatment phytotoxicity, Rice (rice; [21]): 1 | Soil treatment phytotoxicity, Rice (rice; [22]): 1 | Soil treatment phytotoxicity, Rice (rice; [23]): 6
